Read-outs that look alike come from different tables or passages of the source.
Columns and labels:
[1] = target: T1, aldose reductase (Bos taurus, UniProt P16116); assay: Aldose reductase inhibition (percent inhibition of enzyme activity); format: biochemical, calf
T1 construct: The enzyme was isolated from the homogenized preparation by successive chromatography; from tissue; host or cells: calf eye lens
Protocol: The following phenols were tested for their ability to inhibit aldose reductase enzyme activity.
The assay was conducted essentially according to the procedure of S. Hayman, et al., as described in the Journal of Biological Chemistry, 240, 877 (1965).
The preparation of aldose reductase was conducted according to the procedure of K. Inagaki et al., ARchives of Biochemistry and Biophysics, 216, 337 (1982). Briefly, lenses were removed from calf eyes and homogenized. The enzyme was isolated from the homogenized preparation by successive chromatography on a DEAE-sephacel column (Pharmacia LKB Biotechnology, Piscataway, N.J.), an affinity column (Matrex gel red A; Amicon Co., Danvers, Mass.), and a Sephadex G-75 column (Pharmacia LKB Biotechnology, Piscataway, N.J.).
A reaction mixture of 0.1M sodium phosphate buffer (pH 6.2), 0.4M ammonium sulfate, 10 mm glyceraldehyde, 0.16 mm NADPH, and 10 ml propylene glycol solution containing the purified enzyme was prepared. The test compound was incubated with the enzyme in the reaction mixture.
Aldose reductase activity was assayed spectrophotometrically by determining the decrease in the NADPH concentration at 340 nm in a Beckman DU-64 spectrophotometer (Beckman, Palo Alto, Calif.).
The percent inhibition of each compound was calculated by comparing the reaction rate of the solution containing substrate and the compound at a given concentration with that of the control solution containing only substrate.

[2] = tested on: peripheral nerve deterioration; conditions: diabetic patients suffering from peripheral nerve deterioration; cited from earlier work
[3] = target: calf lens aldose reductase; conditions: cited from earlier work
[4] = tested on: motor nerve conduction velocity (MNCV); conditions: short and long-term streptozotocin induced diabetes in rats; cited from earlier work
[5] = tested on: galactosemic cataract formation; conditions: experimental rats; cited from earlier work
[6] = 10^-6 M (× 1.9), read-out: Percent Inhibition (%)
[7] = 10^-6 M (× 3.8), read-out: Percent Inhibition (%)
[8] = 10^-6 M (× 7.5), read-out: Percent Inhibition (%)

Row | inhibition [1, 6] | inhibition [1, 7] | inhibition [1, 8] | Compound | also measured
1 | 47% | 60% | 77% | C=CC/C=C\C/C=C\CCCCCCCc1cccc(O)c1C(=O)O [Compound 4, 6-[8(z),11(z),14-pentadecatrienyl]salicylic acid] | 
2 |  |  |  | C=CC/C=C\C/C=C\CCCCCCCc1cc(O)cc(O)c1 [Compound 16, 5-[8(z),11(z),14-pentadecatrienyl]resorcinol] | inhibition ([1]; read-out: Percent Inhibition (%), 10^-6 M (× 1.9)): 12%; inhibition ([1]; read-out: Percent Inhibition (%), 10^-6 M (× 3.8)): 16%; inhibition ([1]; read-out: Percent Inhibition (%), 10^-6 M (× 7.5)): 85%
3 |  |  |  | O=C1NC(=O)[C@@]2(CCOc3ccc(F)cc32)N1 [sorbinil, d-6-fluoro-spiro [chroman-4,4'-imidazolidine]-2',5'-dione] | improvement in diabetic patients [2]: no beneficial effect was observed; IC50 ([3]; calf lens aldose reductase, read-out: IC50 concentration): ~0.5 µM; aldose reductase inhibitor potency (in words) [3]: one of the most potent inhibitors heretofore investigated; motor nerve conduction velocity (MNCV) [4]: improve motor nerve conduction velocity (MNCV)
4 | 9% | 42% | 91% | CCCCCC/C=C\CCCCCCCc1cccc(O)c1C(=O)O [Compound 2, 6-[8(z)-pentadecenyl]salicylic acid] | 
5 |  |  |  | O=C(O)CN1C(=O)c2cccc3cccc(c23)C1=O [Alrestatin, 1,3-dioxo-1H-benz (de) isoquinoline-2(3H)-acetic acid] | galactosemic cataract formation [5]: successfully prevent galactosemic cataract formation; sugar polyol accumulations [5]: blocking the sugar polyol accumulations; improvement in diabetic patients [2]: no improvement was observed; motor nerve conduction velocity (MNCV) [4]: improve motor nerve conduction velocity (MNCV)
6 |  | 22% | 43% | CCC/C=C\C/C=C\CCCCCCCc1cc(O)c(C)c(O)c1 [Compound 11, 2-methyl-5-[8(z),11(z)-pentadecadienyl]resorcinol] | 
7 | 1% | 18% | 91% | CCC/C=C\C/C=C\CCCCCCCc1cccc(O)c1C(=O)O [Compound 3, 6-[8(z),11(z)-pentadecadienyl]salicylic acid] | 
8 |  | 27% | 40% | CCCCCCCCCCCCCCCc1cccc(O)c1C(=O)O [Compound 1, 6-Pentadecylsalicylic Acid] | 
9 |  | 28% | 53% | C=CC/C=C\C/C=C\CCCCCCCc1cc(O)c(C)c(O)c1 [Compound 12, 2-methyl-5-[8(z),11(z),14-pentadecatrienyl]resorcinol] | 
